In patent US9951064B2, “Azaindazole compounds as inhibitors of T790M containing EGFR mutants” (Genentech, Inc., priority 2013, dated 2018):
Where two headings read alike, the source gives them in different places.

Experiments:
[1] = target: T1, EGFR T790M L858R (Homo sapiens, UniProt P00533, L858R/T790M); assay: EGFR T790M L858R biochemical assay (Caliper mobility shift); conditions: 5 μM ATP; apparent Ki (Morrison fit) converted by Cheng-Prusoff, Km of ATP 1.3 μM
T1 construct: purchased Life Technologies PV4879
T1 sequence (P00533 25-1210 T790M/L858R): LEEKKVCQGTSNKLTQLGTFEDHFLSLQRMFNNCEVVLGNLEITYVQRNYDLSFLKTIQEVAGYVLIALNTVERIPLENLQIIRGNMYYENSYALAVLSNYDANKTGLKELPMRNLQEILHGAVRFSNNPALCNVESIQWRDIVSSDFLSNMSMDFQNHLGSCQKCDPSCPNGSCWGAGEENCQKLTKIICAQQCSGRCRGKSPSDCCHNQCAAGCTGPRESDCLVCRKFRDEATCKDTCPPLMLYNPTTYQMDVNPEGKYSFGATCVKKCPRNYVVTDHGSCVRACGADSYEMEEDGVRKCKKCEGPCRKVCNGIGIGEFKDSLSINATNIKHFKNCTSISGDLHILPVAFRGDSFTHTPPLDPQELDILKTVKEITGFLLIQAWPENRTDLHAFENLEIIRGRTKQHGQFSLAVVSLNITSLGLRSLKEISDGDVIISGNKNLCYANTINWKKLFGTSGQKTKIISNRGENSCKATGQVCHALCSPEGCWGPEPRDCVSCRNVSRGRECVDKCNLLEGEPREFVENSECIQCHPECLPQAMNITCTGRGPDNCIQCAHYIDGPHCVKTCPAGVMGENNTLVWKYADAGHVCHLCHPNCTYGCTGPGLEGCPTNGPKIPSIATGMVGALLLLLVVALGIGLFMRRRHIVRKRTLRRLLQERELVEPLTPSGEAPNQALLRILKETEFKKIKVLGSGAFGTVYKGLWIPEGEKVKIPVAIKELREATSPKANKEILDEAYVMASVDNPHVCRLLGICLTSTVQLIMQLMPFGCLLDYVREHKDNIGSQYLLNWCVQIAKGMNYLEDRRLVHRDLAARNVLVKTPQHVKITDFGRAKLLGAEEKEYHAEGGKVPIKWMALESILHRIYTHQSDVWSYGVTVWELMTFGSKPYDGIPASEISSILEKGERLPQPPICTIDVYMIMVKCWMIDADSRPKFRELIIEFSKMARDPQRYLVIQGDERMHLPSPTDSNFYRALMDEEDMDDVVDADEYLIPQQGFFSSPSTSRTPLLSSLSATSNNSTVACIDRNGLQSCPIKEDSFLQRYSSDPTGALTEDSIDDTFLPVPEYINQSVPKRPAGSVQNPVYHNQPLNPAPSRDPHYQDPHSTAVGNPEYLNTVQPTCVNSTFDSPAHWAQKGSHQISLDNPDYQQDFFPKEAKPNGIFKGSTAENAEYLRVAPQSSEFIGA
Method in brief: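 Reactions run 30 minutes at room temperature (22 °C), stopped with 80 mM EDTA. Phosphorylated product and substrate separated electrophoretically and quantified by Caliper mobility shift.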

[2] = tested on: H1975 (EGFR T790M/L858R) cell proliferation; assay: H1975 proliferation assay (Cell Titer-Glo); format: cell-based; conditions: NCI-H1975 cells, 72 hour incubation, read-out: H1975 antiproliferative EC50
Experimental: H1975 Proliferation Assays
All cell culture reagents were purchased from Invitrogen/Gibco. Cells are cultured at 37° C. at 5% CO2 and split as recommended by ATCC.

[3] = target: T2, EGFR del746-750 T790M (Homo sapiens, UniProt P00533, DEL746-750/T790M); assay: EGFR del746-750 T790M biochemical assay (Caliper mobility shift); conditions: 5 μM ATP; apparent Ki (Morrison fit) converted by Cheng-Prusoff, Km of ATP 2.1 μM; read-out: EGFR(T790M/d746-750) Ki
T2 construct: purchased Carna Biosciences 08-528
T2 sequence (P00533 with tags, fused parts or gaps DEL746-750/T790M limits assumed): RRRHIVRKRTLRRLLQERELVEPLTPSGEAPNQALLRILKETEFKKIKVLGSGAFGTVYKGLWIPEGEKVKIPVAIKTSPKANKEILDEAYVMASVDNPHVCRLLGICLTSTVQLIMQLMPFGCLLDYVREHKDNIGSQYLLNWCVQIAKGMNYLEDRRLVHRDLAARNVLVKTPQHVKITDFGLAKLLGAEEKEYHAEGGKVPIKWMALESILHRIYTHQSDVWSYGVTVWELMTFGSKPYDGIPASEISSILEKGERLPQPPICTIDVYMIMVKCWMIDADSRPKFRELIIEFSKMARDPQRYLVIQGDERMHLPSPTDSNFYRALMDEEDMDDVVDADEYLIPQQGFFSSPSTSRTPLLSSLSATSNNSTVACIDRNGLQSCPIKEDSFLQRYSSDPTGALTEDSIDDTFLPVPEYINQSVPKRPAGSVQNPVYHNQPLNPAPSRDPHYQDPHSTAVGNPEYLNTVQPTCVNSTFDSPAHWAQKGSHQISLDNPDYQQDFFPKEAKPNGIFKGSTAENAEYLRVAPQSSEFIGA
Method in brief: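 Kinase reactions ran 30 min at room temperature (22 °C), then were stopped with 80 mM EDTA. Phosphorylated product and substrate were separated electrophoretically and quantified by Caliper mobility shift.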

[4] = target: T3, phosphor-EGFR in H1975(L585R/T790M) mutant EGFR expressing cells (Homo sapiens, UniProt P00533, L858R/T790M); assay: H1975 pEGFR MSD cellular assay; format: cell-based; conditions: NCI-H1975 cells, serum starved, 1 hour compound incubation, pEGFR Tyr1068 MSD; read-out: HI975 pEGFR EC50
T3 construct: host or cells: NCI-H1975
T3 sequence (P00533 25-1210 T790M/L858R): as the sequence (P00533 25-1210 T790M/L858R) above
Method in brief: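 NCI-H1975 cells, 30,000/well, serum-starved overnight, then treated 1 hour at 37° C with serially diluted compounds in serum-free medium (0.5% DMSO). Lysates captured on anti-phospho-EGFR plates overnight at 4° C, detected with SULFO-TAG anti-total EGFR by electrochemiluminescence. Inhibition vs untreated controls; EC50 from 4-parameter logistic fit.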

SMILES	Ki [1] [nM]	EC50 ([2]; Homo sapiens, NCI-H1975, 72 h) [nM]	Ki [3] [nM]	EC50 [4] [nM]	EC50 [2] [nM]
C[C@H](n1nc(N2CC[C@@H](O)C2)c2cnc(Nc3ccnc(N4CC[C@H](O)[C@H](F)C4)n3)cc21)C(F)(F)F (relative stereo) [Example 141, (±)-cis-3-Fluoro-1-(4-(3-((R)-3-hydroxypyrrolidin-1-yl)-1-((S*)-1,1,1-trifluoropropan-2-yl)-1H-pyrazolo[4,3-c]pyridin-6-ylamino)pyrimidin-2-yl)piperidin-4-ol]	1.6	769	2.7	89.2	
C[C@@H](n1nc(N2CC[C@@H](O)C2)c2cnc(Nc3ccnc(N4CC[C@H](O)[C@H](F)C4)n3)cc21)C(F)(F)F (relative stereo) [Example 142, (±)-cis-3-Fluoro-1-(4-(3-((R)-3-hydroxypyrrolidin-1-yl)-1-((R*)-1,1,1-trifluoropropan-2-yl)-1H-pyrazolo[4,3-c]pyridin-6-ylamino)pyrimidin-2-yl)piperidin-4-ol]	1.6	1280	3.1	110	
CCC(C)n1nc(N2C[C@@H](F)[C@@H](N)C2)c2cnc(Nc3ccnc(N4CCC(C)(O)CC4)n3)cc21 (relative stereo) [Example 177, 1-(4-(3-(cis-3-Amino-4-fluoropyrrolidin-1-yl)-1-sec-butyl-1H-pyrazolo[4,3-c]pyridin-6-ylamino)pyrimidin-2-yl)-4-methylpiperidin-4-ol]	1.7	489	2.1	87.2	
CCC(C)n1nc(N2C[C@H](O)[C@@H](F)C2)c2cnc(Nc3ccnc(N4CCC(C)(O)CC4)n3)cc21 (relative stereo) [Example 178, 1-(4-(1-sec-Butyl-3-(trans-3-fluoro-4-hydroxypyrrolidin-1-yl)-1H-pyrazolo[4,3-c]pyridin-6-ylamino)pyrimidin-2-yl)-4-methylpiperidin-4-ol]	1.4	483	4.7	83.2	
CC(C#N)Nc1nn(C(C)C)c2cc(Nc3ccnc(N4CC[C@H](O)[C@H](F)C4)n3)ncc12 (relative stereo) [Example 179, 2-(6-(2-(cis-3-Fluoro-4-hydroxypiperidin-1-yl)pyrimidin-4-ylamino)-1-isopropyl-1H-pyrazolo[4,3-c]pyridin-3-ylamino)propanenitrile]	5.6	1480	15.1	746	
CC[C@H](C)n1nc(N2CC(C(C)(C)O)C2)c2cnc(Nc3ccnc(N4CC[C@@H](O)[C@@H](F)C4)n3)cc21 (relative stereo) [Example 194, (3S,4R)-1-(4-((1-((S*)-sec-Butyl)-3-(3-(2-hydroxypropan-2-yl)azetidin-1-yl)-1H-pyrazolo[4,3-c]pyridin-6-yl)amino)pyrimidin-2-yl)-3-fluoropiperidin-4-ol]	1.5	429	3.5	171	
CC[C@@H](C)n1nc(N2CC[C@@H](O)C2)c2cnc(Nc3ccnc(N4CCC5(CC4)CNC(=O)CO5)n3)cc21 (relative stereo) [Example 208, 9-(4-((1-((R*)-sec-Butyl)-3-((R)-3-hydroxypyrrolidin-1-yl)-1H-pyrazolo[4,3-c]pyridin-6-yl)amino)pyrimidin-2-yl)-1-oxa-4,9-diazaspiro[5.5]undecan-3-one]	3.8	9130	10.1	1200	
CC[C@@H](C)n1nc(N2CC[C@@H](O)C2)c2cnc(Nc3ccnc(N4CC[C@](C)(C(N)=O)C4)n3)cc21 (relative stereo) [Example 210, (S*)-1-(4-((1-((R*)-sec-Butyl)-3-((R)-3-hydroxypyrrolidin-1-yl)-1H-pyrazolo[4,3-c]pyridin-6-yl)amino)pyrimidin-2-yl)-3-methylpyrrolidine-3-carboxamide]	3.1	4050	2.1	1850	
CC[C@H](C)n1nc(N2CC3(COC3)C2)c2cnc(Nc3ccnc(N4CC[C@@](C)(O)[C@@H](F)C4)n3)cc21 (single isomer, unassigned) [Example 66, (3R*,4S*)-1-{4-[1-((S)-sec-Butyl)-3-(2-oxa-6-azaspiro[3.3]hept-6-yl)-1H-pyrazolo[4,3-c]pyridin-6-ylamino]pyrimidin-2-yl}-3-fluoro-4-methylpiperidin-4-ol]	2.1	631	4.6	63.8	
CC[C@@H](C)n1nc(N2CC3(COC3)C2)c2cnc(Nc3ccnc(N4CC[C@](C)(O)[C@H](F)C4)n3)cc21 (single isomer, unassigned) [Example 67, (3R*,4S*)-1-{4-[1-((R)-sec-Butyl)-3-(2-oxa-6-azaspiro[3.3]hept-6-yl)-1H-pyrazolo[4,3-c]pyridin-6-ylamino]pyrimidin-2-yl}-3-fluoro-4-methylpiperidin-4-ol]	3.9	1160	11.1	257	
CC[C@@H](C)n1nc(N2CC3(COC3)C2)c2cnc(Nc3ccnc(N4CC[C@@](C)(O)[C@@H](F)C4)n3)cc21 (single isomer, unassigned) [Example 68, (3R*,4S*)-1-{4-[1-((R)-sec-Butyl)-3-(2-oxa-6-azaspiro[3.3]hept-6-yl)-1H-pyrazolo[4,3-c]pyridin-6-ylamino]pyrimidin-2-yl}-3-fluoro-4-methylpiperidin-4-ol]	3.2	851	10.2	157	
CC(C)n1nc(N2CCC(O)C2)c2cnc(Nc3ccnc(N4CC[C@@H](O)[C@@H](F)C4)n3)cc21 (single isomer, unassigned) [Example 105, (3S*,4R*)-3-fluoro-1-(4-((3-((R)-3-hydroxypyrrolidin-1-yl)-1-isopropyl-1H-pyrazolo[4,3-c]pyridin-6-yl)amino)pyrimidin-2-yl)piperidin-4-ol]	1.2	213	2.7	129	
CCC(C)n1nc(N2CC(C(C)(C)O)C2)c2cnc(Nc3ccnc(N4CC[C@@H](O)[C@@H](F)C4)n3)cc21 (single isomer, unassigned) [Example 193, (3S,4R)-1-(4-((1-((R*)-sec-Butyl)-3-(3-(2-hydroxypropan-2-yl)azetidin-1-yl)-1H-pyrazolo[4,3-c]pyridin-6-yl)amino)pyrimidin-2-yl)-3-fluoropiperidin-4-ol]	1.8	334	5.6	129	
CCC(C)n1nc(N2CC3(COC3)C2)c2cnc(Nc3ccnc(N4CC[C@@H](O)[C@@H](F)C4)n3)cc21 (single isomer, unassigned) [Example 197, (3S,4R)-1-(4-((1-((R*)-sec-Butyl)-3-(2-oxa-6-azaspiro[3.3]heptan-6-yl)-1H-pyrazolo[4,3-c]pyridin-6-yl)amino)pyrimidin-2-yl)-3-fluoropiperidin-4-ol]	1.2		2.7	12.8	149
CCC(C)n1nc(N2CC3(COC3)C2)c2cnc(Nc3ccnc(N4CC[C@@H](O)[C@@H](F)C4)n3)cc21 (single isomer, unassigned) [Example 198, (3S,4R)-1-(4-((1-((S*)-sec-Butyl)-3-(2-oxa-6-azaspiro[3.3]heptan-6-yl)-1H-pyrazolo[4,3-c]pyridin-6-yl)amino)pyrimidin-2-yl)-3-fluoropiperidin-4-ol]	1.5		3.1	16.4	348
